# Laboratory results reported in patent US7851487B2, “Use of tetrahydropyridines in the treatment of central nervous system disorders” (The Research Foundation of State University of New York, priority 2006, dated 2010).
# Columns and labels:
# Dopamine D2s = biological target: T1, Dopamine D2s (Homo sapiens, UniProt P14416); experiment: Radioligand binding, Dopamine D2S ([3H]Spiperone)
# T1 construct: host or cells: CHO cells
# Description: (§1) The assays utilized human neuroreceptors and were performed under the experimental parameters set forth in Table 2 using standard techniques.
# (§2) For Table 3, IC50 values were determined by non-linear, least squares regression analysis using Data Analysis Toolbox™ (MDL Information Systems, San Leandro, Calif., USA). Inhibition constants (KI) were calculated using the equation of Cheng and Prusoff (Cheng, Y., et al. Biochem. Pharmacol. 22:3099-3108, 1973) using the observed IC50 of the tested compound, the concentration of radioligand employed in the assay, and the values for the KD of the ligand. The Hill coefficient (nH), defining the slope of the competitive binding curve, was calculated using the Data Analysis Toolbox™. Biochemical assay results are presented as the percent inhibition of specific binding or activity unless indicated otherwise. The experiments summarized in Table 3 utilized human dopamine D1, D2 s, D21, D3, D4.2, D4.4, serotonin 5HT1A, 5HT2A, 5HT2C, 5HT6, 5HT7, dopamine transporter (DAT), serotonin transporter (SERT) and the norepinephrine transporter (NET), as indicated in Table 3.
# [1] = biological target: T2, Serotonin transporter (SERT) (Homo sapiens, UniProt P31645); experiment: Radioligand binding, Serotonin transporter (SERT) ([3H]Paroxetine)
# T2 construct: host or cells: HEK-293 cells
# T2 sequence (P31645 whole entry): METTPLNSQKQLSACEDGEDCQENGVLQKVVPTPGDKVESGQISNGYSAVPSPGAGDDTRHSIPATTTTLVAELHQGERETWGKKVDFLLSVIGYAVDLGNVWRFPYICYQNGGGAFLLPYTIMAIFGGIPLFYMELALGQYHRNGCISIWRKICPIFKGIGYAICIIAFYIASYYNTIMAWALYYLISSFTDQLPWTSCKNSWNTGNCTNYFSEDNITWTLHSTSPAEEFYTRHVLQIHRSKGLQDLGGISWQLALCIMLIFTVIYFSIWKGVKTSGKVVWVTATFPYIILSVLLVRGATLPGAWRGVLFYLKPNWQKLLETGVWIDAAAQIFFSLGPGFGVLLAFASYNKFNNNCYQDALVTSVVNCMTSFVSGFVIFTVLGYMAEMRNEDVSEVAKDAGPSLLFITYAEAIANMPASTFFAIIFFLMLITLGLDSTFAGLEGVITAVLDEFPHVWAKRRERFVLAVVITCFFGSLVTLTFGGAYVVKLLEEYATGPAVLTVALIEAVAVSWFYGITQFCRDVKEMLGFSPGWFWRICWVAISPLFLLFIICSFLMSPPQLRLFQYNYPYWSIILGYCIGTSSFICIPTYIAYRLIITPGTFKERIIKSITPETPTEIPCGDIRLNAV
# Description: as §1, §2
# [2] = biological target: T3, Dopamine transporter (DAT) (Homo sapiens, UniProt Q01959); experiment: Radioligand binding, Dopamine transporter (DAT) ([125I]RTI-55)
# T3 construct: host or cells: CHO-K1 cells
# T3 sequence (Q01959 whole entry): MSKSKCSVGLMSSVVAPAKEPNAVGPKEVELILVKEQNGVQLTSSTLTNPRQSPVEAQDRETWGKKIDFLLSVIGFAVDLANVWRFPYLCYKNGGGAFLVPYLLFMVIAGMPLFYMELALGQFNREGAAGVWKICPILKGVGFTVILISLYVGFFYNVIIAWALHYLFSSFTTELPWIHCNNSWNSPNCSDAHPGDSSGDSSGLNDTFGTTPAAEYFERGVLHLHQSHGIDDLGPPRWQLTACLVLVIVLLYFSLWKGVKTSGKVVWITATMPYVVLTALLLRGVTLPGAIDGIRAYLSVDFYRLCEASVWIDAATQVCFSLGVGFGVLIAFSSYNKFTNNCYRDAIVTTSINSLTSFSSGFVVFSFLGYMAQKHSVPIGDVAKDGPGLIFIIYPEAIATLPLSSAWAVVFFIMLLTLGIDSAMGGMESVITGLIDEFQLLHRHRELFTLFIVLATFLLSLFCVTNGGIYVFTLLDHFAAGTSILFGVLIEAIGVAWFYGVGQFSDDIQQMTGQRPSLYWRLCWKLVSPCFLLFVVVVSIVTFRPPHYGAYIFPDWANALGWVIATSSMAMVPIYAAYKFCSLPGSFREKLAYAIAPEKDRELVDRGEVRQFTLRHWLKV
# Description: as §1, §2
# Dopamine D2L = biological target: T4, Dopamine D2L (Homo sapiens, UniProt P14416); experiment: Radioligand binding, Dopamine D2L ([3H]Spiperone)
# T4 construct: host or cells: CHO cells
# T4 sequence (P14416 whole entry): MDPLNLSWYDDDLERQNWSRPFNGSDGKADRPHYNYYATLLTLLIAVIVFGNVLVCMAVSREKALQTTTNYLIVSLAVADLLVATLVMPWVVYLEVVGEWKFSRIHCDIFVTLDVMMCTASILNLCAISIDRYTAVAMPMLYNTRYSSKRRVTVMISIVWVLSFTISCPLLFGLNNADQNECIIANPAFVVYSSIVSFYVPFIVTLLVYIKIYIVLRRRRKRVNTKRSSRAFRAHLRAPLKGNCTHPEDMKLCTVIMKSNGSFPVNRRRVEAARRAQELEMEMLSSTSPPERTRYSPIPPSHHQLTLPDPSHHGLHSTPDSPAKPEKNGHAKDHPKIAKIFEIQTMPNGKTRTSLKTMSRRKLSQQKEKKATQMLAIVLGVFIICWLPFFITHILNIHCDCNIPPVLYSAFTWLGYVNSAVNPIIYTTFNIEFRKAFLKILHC
# Description: as §1, §2
# Serotonin 5HT7 = biological target: T5, Serotonin 5HT7 (Homo sapiens, UniProt P34969); experiment: Radioligand binding, Serotonin 5HT7 ([3H]LSD)
# T5 construct: host or cells: CHO cells
# T5 sequence (P34969 whole entry): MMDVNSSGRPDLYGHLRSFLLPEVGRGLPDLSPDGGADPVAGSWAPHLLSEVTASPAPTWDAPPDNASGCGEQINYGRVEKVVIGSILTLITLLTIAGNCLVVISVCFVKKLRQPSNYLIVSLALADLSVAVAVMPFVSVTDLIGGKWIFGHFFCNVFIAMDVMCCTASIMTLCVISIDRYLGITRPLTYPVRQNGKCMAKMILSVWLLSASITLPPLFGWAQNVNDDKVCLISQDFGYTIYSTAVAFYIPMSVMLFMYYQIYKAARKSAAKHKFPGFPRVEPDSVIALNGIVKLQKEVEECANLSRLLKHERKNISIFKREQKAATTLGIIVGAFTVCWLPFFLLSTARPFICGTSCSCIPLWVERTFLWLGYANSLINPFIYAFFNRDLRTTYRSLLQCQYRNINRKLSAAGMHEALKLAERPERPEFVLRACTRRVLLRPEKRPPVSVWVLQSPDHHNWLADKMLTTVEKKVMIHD
# Description: as §1, §2
# Dopamine D3 = Dopamine D3 (Homo sapiens, UniProt P35462); experiment: Radioligand binding, Dopamine D3; conditions: Dopamine D3, 10 μM; read-out: Percentage Inhibition
# Dopamine D3, sequence (P35462 whole entry): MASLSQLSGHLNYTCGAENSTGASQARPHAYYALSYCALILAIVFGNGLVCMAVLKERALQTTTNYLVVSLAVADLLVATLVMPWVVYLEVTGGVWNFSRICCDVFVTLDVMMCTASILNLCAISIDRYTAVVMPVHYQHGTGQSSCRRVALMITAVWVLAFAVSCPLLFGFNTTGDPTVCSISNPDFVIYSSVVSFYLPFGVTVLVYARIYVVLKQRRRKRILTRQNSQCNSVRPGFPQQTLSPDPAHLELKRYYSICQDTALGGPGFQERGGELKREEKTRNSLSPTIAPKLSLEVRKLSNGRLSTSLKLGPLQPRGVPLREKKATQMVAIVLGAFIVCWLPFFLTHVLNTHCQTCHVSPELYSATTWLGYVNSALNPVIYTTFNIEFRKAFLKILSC
# Description: as §1, §2
# Serotonin 5HT2A = biological target: T6, Serotonin 5HT2A (Homo sapiens, UniProt P28223); experiment: Radioligand binding, Serotonin 5HT2A ([3H]Ketanserin)
# T6 construct: host or cells: CHO-K1 cells
# T6 sequence (P28223 whole entry): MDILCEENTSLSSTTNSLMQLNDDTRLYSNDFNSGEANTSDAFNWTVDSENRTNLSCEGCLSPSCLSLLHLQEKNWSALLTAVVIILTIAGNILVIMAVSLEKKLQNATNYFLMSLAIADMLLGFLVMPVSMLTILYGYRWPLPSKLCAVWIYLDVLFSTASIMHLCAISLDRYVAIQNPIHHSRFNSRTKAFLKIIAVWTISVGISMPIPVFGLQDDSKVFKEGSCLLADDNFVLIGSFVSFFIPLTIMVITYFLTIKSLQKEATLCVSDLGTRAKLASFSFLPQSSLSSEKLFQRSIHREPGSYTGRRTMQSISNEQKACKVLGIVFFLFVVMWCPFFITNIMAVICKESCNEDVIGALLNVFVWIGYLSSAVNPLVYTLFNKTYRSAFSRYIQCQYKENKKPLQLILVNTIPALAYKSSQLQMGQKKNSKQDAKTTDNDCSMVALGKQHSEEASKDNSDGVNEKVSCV
# Description: as §1, §2
# Dopamine D4.2 = biological target: T7, Dopamine D4.2 (Homo sapiens, UniProt P21917, DEL265-296); experiment: Radioligand binding, Dopamine D4.2 ([3H]Spiperone)
# T7 construct: host or cells: CHO-K1 cells
# T7 sequence (P21917 with tags, fused parts or gaps DEL265-296): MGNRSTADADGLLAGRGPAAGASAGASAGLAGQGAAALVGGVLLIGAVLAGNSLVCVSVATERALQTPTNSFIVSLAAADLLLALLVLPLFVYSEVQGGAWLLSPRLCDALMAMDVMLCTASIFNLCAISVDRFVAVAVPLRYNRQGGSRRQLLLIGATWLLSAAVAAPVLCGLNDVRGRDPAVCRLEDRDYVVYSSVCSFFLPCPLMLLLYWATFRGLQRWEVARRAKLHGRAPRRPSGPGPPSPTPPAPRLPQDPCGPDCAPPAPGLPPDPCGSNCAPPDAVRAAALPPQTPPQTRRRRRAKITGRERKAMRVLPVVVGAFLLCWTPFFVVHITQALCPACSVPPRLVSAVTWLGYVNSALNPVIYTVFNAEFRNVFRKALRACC
# Description: as §1, §2
# Dopamine D4.4 = biological target: T8, Dopamine D4.4 (Homo sapiens, UniProt P21917); experiment: Radioligand binding, Dopamine D4.4 ([3H]Spiperone)
# T8 construct: host or cells: CHO-K1 cells
# T8 sequence (P21917 1-419): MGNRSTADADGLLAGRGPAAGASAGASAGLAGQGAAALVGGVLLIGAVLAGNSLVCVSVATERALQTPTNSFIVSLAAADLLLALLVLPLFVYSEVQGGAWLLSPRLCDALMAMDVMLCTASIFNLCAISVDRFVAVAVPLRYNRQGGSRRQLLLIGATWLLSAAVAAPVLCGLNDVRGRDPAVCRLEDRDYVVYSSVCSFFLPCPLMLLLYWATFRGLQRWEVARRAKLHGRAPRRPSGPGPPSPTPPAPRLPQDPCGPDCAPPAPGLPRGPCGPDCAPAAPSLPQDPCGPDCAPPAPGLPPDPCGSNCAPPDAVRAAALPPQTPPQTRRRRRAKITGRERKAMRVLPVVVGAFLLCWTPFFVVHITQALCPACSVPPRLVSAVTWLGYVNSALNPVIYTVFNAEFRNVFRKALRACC
# Description: as §1, §2
# Dopamine D1 = Dopamine D1 (Homo sapiens, UniProt P21728); experiment: Radioligand binding, Dopamine D1; conditions: Dopamine D1, 10 μM; read-out: Percentage Inhibition
# Dopamine D1, sequence (P21728 whole entry): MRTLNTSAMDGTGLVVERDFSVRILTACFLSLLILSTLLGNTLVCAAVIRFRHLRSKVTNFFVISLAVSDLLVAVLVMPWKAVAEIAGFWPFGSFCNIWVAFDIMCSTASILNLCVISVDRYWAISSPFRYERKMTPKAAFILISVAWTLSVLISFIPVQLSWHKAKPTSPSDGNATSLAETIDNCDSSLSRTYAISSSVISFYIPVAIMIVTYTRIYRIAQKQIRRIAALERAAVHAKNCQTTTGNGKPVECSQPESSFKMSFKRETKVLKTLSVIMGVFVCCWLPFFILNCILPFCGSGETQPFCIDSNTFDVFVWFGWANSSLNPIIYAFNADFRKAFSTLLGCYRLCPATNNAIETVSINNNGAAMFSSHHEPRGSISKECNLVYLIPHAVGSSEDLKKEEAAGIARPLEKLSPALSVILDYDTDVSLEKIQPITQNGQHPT
# Description: as §1, §2
# [3] = biological target: T9, Norepinephrine transporter (NET) (Homo sapiens, UniProt P23975); experiment: Radioligand binding, Norepinephrine transporter (NET) ([125I]RTI-55)
# T9 construct: host or cells: MDCK cells
# T9 sequence (P23975 whole entry): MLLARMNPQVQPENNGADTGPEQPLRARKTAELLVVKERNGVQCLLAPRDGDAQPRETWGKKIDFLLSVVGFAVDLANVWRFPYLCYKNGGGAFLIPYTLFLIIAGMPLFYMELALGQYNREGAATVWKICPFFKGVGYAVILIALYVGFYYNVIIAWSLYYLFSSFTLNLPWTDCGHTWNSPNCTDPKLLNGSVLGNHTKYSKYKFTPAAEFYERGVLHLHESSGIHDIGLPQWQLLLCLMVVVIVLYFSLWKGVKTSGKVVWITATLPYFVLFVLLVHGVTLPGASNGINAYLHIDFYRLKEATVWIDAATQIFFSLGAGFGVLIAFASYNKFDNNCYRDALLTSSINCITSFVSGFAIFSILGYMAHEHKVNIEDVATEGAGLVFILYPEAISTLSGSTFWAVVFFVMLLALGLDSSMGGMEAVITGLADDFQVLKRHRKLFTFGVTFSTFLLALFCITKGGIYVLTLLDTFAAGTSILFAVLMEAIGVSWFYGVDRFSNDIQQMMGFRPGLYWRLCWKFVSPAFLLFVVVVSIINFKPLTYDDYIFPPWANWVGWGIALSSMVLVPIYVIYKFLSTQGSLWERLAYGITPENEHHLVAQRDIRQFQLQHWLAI
# Description: as §1, §2
# T1 sequence (P14416 1-414 isoform P14416-2): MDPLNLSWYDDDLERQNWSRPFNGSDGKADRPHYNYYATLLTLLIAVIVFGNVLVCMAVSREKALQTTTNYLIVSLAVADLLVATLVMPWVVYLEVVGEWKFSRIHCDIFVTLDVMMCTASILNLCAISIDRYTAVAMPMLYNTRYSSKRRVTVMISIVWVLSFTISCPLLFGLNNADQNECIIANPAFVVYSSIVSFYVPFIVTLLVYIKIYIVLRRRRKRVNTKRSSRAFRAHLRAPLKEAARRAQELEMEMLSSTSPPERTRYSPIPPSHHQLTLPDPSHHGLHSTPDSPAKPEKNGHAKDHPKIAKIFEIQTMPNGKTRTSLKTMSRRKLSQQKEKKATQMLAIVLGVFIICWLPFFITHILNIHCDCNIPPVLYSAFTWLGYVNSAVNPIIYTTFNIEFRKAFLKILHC
smiles,measurement,setting,value
COC(=O)[C@@H](c1ccc(-c2ccccc2)cc1)[C@H]1C=CCCN1 [Compound 2],IC50,Dopamine D2s,51.8 µM
same,Ki,Dopamine D2s,18.7 µM
same,inhibition at 10 µM,"Dopamine D2s; Dopamine D2s, 10 μM, read-out: Percentage Inhibition",26%
same,inhibition at 100 µM,"Dopamine D2s; Dopamine D2s, 100 μM, read-out: Percentage Inhibition",62%
same,nH,"Dopamine D2s; Dopamine D2s, Hill coefficient",0.788
same,IC50,[1],14.3 µM
same,Ki,[1],2.33 µM
same,inhibition at 10 µM,"[1]; Serotonin transporter (SERT), 10 μM, read-out: Percentage Inhibition",48%
same,inhibition at 30 µM,"[1]; Serotonin transporter (SERT), 30 μM, read-out: Percentage Inhibition",70%
same,nH,"[1]; Serotonin transporter (SERT), Hill coefficient",1.24
same,IC50,[2],13.8 µM
same,Ki,[2],11 µM
same,inhibition at 10 µM,"[2]; Dopamine transporter (DAT), 10 μM, read-out: Percentage Inhibition",33%
same,inhibition at 100 µM,"[2]; Dopamine transporter (DAT), 100 μM, read-out: Percentage Inhibition",74%
same,nH,"[2]; Dopamine transporter (DAT), Hill coefficient",1.3
same,IC50,Dopamine D2L,88.2 µM
same,Ki,Dopamine D2L,29.4 µM
same,inhibition at 10 µM,"Dopamine D2L; Dopamine D2l, 10 μM, read-out: Percentage Inhibition",13%
same,inhibition at 100 µM,"Dopamine D2L; Dopamine D2l, 100 μM, read-out: Percentage Inhibition",54%
same,nH,"Dopamine D2L; Dopamine D2l, Hill coefficient",0.716
same,IC50,Serotonin 5HT7,25.8 µM
same,Ki,Serotonin 5HT7,14.8 µM
same,inhibition at 30 µM,"Serotonin 5HT7; Serotonin 5HT7, 30 μM, read-out: Percentage Inhibition",53%
same,nH,"Serotonin 5HT7; Serotonin 5HT7, Hill coefficient",0.774
same,inhibition at 10 µM,Dopamine D3,15%
same,IC50,Serotonin 5HT2A,0.797 µM
same,Ki,Serotonin 5HT2A,0.228 µM
same,inhibition at 1 µM,"Serotonin 5HT2A; Serotonin 5HT2A, 1 μM, read-out: Percentage Inhibition",61%
same,inhibition at 10 µM,"Serotonin 5HT2A; Serotonin 5HT2A, 10 μM, read-out: Percentage Inhibition",94%
same,nH,"Serotonin 5HT2A; Serotonin 5HT2A, Hill coefficient",1.02
same,IC50,Dopamine D4.2,50.5 µM
same,Ki,Dopamine D4.2,19.7 µM
same,nH,"Dopamine D4.2; Dopamine D4.2, Hill coefficient",1.76
same,Percentage Inhibition,"Dopamine D4.2; Dopamine D4.2, concentration 100 (unit not given)",79%
same,IC50,Dopamine D4.4,66.7 µM
same,Ki,Dopamine D4.4,18.5 µM
same,nH,"Dopamine D4.4; Dopamine D4.4, Hill coefficient",1.01
same,Percentage Inhibition,"Dopamine D4.4; Dopamine D4.4, concentration 100 (unit not given)",62%
same,inhibition at 10 µM,Dopamine D1,17%
same,IC50,[3],10 µM
same,Ki,[3],9.94 µM
same,inhibition at 10 µM,"[3]; Norepinephrine transporter (NET), 10 μM, read-out: Percentage Inhibition",51%
same,nH,"[3]; Norepinephrine transporter (NET), Hill coefficient",1.1
